This series in a line: xn = mol fraction of the nth substance listed. The conditions noted are these: 101.3 kPa, Liquid; for viscosity: Capillary tube (Ostwald / Ubbelohde) method; for electrical conductivity: Shanghai Precision & Scientific Instrument Co., LTD (DDS-307).

Numbers after ± are expanded uncertainties.

Turning to `CCCCn1cc[n+](C)c1.F[P-](F)(F)(F)(F)F` [1-butyl-3-methylimidazolium hexafluorophosphate] + CC(C)=O, the viscosity by setting is: (288.15 K, x2 = 0.2) 165 ± 6.9 mPa·s; (288.15 K, x2 = 0.48) 25.1 ± 0.9 mPa·s; (293.15 K, x2 = 0.2) 127 ± 5.1 mPa·s; (293.15 K, x2 = 0.48) 21.2 ± 0.7 mPa·s; (298.15 K, x2 = 0.2) 100.2 ± 3.9 mPa·s; (298.15 K, x2 = 0.48) 18.2 ± 0.6 mPa·s. Moreover, the viscosity runs as follows: (303.15 K, x2 = 0.2) 79.8 ± 3 mPa·s; (303.15 K, x2 = 0.48) 16 ± 0.5 mPa·s; (308.15 K, x2 = 0.2) 64.1 ± 2.4 mPa·s; (308.15 K, x2 = 0.48) 13.8 ± 0.5 mPa·s. Moreover, the electrical conductivity was determined as 0.00298 ± 0.00018 S/m (288.15 K, x2 = 0.2); 0.00925 ± 0.00056 S/m (288.15 K, x2 = 0.48); 0.00342 ± 0.00021 S/m (293.15 K, x2 = 0.2); 0.00965 ± 0.00058 S/m (293.15 K, x2 = 0.48); 0.00375 ± 0.00023 S/m (298.15 K, x2 = 0.2); 0.0102 ± 0.00061 S/m (298.15 K, x2 = 0.48). The electrical conductivity amounted to 0.00429 ± 0.00026 S/m (303.15 K, x2 = 0.2); 0.0106 ± 0.00064 S/m (303.15 K, x2 = 0.48); 0.00467 ± 0.00028 S/m (308.15 K, x2 = 0.2); 0.011 ± 0.00066 S/m (308.15 K, x2 = 0.48).

Turning to `CCCCn1cc[n+](C)c1.F[P-](F)(F)(F)(F)F` [1-butyl-3-methylimidazolium hexafluorophosphate] + CCO, the viscosity was 200.6 ± 8.7 mPa·s (288.15 K, x2 = 0.2); 48 ± 1.7 mPa·s (288.15 K, x2 = 0.48); 148.1 ± 6.2 mPa·s (293.15 K, x2 = 0.2); 37.7 ± 1.3 mPa·s (293.15 K, x2 = 0.48); 113.7 ± 4.5 mPa·s (298.15 K, x2 = 0.2); 30.1 ± 1 mPa·s (298.15 K, x2 = 0.48). Besides, the viscosity is on record as 88.4 ± 3.4 mPa·s (303.15 K, x2 = 0.2); 24.8 ± 0.8 mPa·s (303.15 K, x2 = 0.48); 71.5 ± 2.7 mPa·s (308.15 K, x2 = 0.2); 21 ± 0.7 mPa·s (308.15 K, x2 = 0.48). Also, the electrical conductivity reads like this: (288.15 K, x2 = 0.2) 0.00302 ± 0.00018 S/m; (288.15 K, x2 = 0.48) 0.0068 ± 0.00041 S/m; (293.15 K, x2 = 0.2) 0.00336 ± 0.0002 S/m; (293.15 K, x2 = 0.48) 0.00733 ± 0.00044 S/m; (298.15 K, x2 = 0.2) 0.0038 ± 0.00023 S/m; (298.15 K, x2 = 0.48) 0.00798 ± 0.00048 S/m. Further, the electrical conductivity reads like this: (303.15 K, x2 = 0.2) 0.0043 ± 0.00026 S/m; (303.15 K, x2 = 0.48) 0.00863 ± 0.00052 S/m; (308.15 K, x2 = 0.2) 0.00475 ± 0.00029 S/m; (308.15 K, x2 = 0.48) 0.00933 ± 0.00056 S/m.

Turning to `CCCCn1cc[n+](C)c1.F[P-](F)(F)(F)(F)F` [1-butyl-3-methylimidazolium hexafluorophosphate] + O, the viscosity reads like this: (293.15 K, x2 = 0.2) 166.4 ± 9.4 mPa·s; (298.15 K, x2 = 0.2) 128.7 ± 5.2 mPa·s; (303.15 K, x2 = 0.2) 99.2 ± 3.9 mPa·s; (308.15 K, x2 = 0.2) 78.2 ± 3.4 mPa·s. The electrical conductivity runs as follows: (293.15 K, x2 = 0.2) 0.0033 ± 0.0002 S/m; (298.15 K, x2 = 0.2) 0.00372 ± 0.00022 S/m; (303.15 K, x2 = 0.2) 0.00429 ± 0.00026 S/m; (308.15 K, x2 = 0.2) 0.00478 ± 0.00029 S/m.

In general, viscosity refers to the internal friction of a fluid under shear.

Source of the values: the NIST ThermoML archive (doi:10.1021/je034078h).
